Broadly, the GI50 is the concentration giving 50% growth inhibition. Broadly, the IC50 is the concentration that inhibits the measured activity by half. Lower therefore signals greater potency in that assay.

The subject of assay [1] is MCF-7 (Human Breast Cancer Cell Line). As to the kind of experiment: SRB antiproliferative assay, MCF-7. The format is cell-based. The procedure: (§1) Following an extensive review of the literature, we selected human breast cancer (MCF-7, MDA-MB-231) and lung cancer (A549) cell lines to evaluate the anticancer potential of the synthesized compounds, and some compounds with good anti-proliferation activity were again tested to evaluate their cytotoxic potential on A-549, MCF-7, and MDA-MB-231. The same were also tested on one non-cancerous/normal (HEK-293) cell line. All the cell lines for the required screening were developed in a suitable medium comprising 10% FBS and 2mM L-glutamine. Cancerous and non-cancerous/normal cell lines were selected for the cell proliferation and cytotoxicity assay and maintained with 5% CO2 at 37 °C in a CO2 incubator with 100% relative humidity for one complete day before the addition of experimental drugs.
(§2) Antiproliferative activity through an SRB assay was performed for all the synthesized compounds on A-549 and MCF-7 cell lines. Around 5000 cells/well were quarantined into a 96-well microtiter plate in 100 μL. The synthesized compounds were solubilized in DMSO and diluted to different concentrations before use. The final-drug-concentration aliquots were poured into microtiter wells, and the plates were incubated for 48 h in regular conditions. After adding the final drug concentration, the cells were allowed to set in place and incubated for 60 min. A total of 50 µL of SRB solution (0.4% w/v) in 1% CH3COOH was poured into each well. The plates were then incubated for 20 min at RT. During subsequent staining, the unbounded dye was removed, and the plate reader recorded the eluted bound stain at 540 nm with a 690 nm reference wavelength. The assay was performed precisely using the appropriate reagents and reaction situation, as per the reported procedure. ADR was selected as the reference drug.
(The SRB assay estimates cell density from bound dye.)

The target of the next assay is T1, HDAC6 (Homo sapiens, UniProt Q9UBN7).
T1 construct: The HeLa nuclear extract was used as a source of HDAC activity; host or cells: HeLa (nuclear extract / cells)
T1 sequence (Q9UBN7 1-1215): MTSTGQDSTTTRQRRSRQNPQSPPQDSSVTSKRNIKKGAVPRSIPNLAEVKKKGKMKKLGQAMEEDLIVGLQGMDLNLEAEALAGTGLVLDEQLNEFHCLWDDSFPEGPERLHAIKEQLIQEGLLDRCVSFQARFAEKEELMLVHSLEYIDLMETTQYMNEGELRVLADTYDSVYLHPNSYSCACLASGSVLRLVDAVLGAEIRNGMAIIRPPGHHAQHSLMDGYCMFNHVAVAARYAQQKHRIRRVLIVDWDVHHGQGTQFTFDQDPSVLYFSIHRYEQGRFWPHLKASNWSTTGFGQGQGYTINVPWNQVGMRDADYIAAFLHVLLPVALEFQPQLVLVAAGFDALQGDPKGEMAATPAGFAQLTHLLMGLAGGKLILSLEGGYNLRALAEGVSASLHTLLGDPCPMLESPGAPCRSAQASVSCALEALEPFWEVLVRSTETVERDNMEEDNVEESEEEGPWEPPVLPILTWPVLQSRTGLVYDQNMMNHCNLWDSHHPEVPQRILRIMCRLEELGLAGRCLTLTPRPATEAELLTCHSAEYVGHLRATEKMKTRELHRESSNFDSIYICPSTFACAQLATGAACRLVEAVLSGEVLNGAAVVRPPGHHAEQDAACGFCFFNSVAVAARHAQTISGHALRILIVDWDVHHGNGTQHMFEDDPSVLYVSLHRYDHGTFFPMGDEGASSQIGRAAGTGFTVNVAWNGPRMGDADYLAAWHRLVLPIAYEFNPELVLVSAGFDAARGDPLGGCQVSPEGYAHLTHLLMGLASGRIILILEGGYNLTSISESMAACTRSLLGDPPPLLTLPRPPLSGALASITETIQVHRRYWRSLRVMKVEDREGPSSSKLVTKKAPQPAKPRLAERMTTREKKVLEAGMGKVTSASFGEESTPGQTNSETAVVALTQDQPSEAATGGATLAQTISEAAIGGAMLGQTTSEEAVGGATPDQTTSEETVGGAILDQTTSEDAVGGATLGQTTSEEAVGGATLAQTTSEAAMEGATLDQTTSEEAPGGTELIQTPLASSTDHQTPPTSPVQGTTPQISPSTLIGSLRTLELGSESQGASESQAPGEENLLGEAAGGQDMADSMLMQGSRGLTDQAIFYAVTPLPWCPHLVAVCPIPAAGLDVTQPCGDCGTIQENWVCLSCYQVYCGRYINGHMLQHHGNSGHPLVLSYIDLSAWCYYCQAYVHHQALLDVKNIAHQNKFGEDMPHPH
In words: HDAC inhibition assay (color de lys ELISA kit), HDAC6. The assay is classed as biochemical. The settings on record: HeLa nuclear extract as source of HDAC activity. The procedure: (§3) SAHA served as the assay’s positive control. The HeLa nuclear extract was used as a source of HDAC activity. The trypsinized HeLa cells were tallied, put into 96-well microtiter plates, and nurtured. Samples and the standard were placed in wells at a concentration of 100 µL. The culture environment was maintained as per the procedure. 3,3′,5,5′-tetramethylbenzidine (TMB) was included for visualization. Finally, 50 µL of halt solution was smeared. The samples and different SAHA concentrations (0.01, 0.1, 1, 10 μM) were introduced to the appropriate well and left for 72 h. BioTek Epoch (Winooski, VT, USA) microplate reader was used to quantify optical density at 450 nm. The Graph Pad Prism 5 helped to determine the IC50 values.

The test system of assay [2] is A-549 (Human Lung Cancer Cell Line). As to the kind of experiment: SRB antiproliferative assay, A-549. The assay is classed as cell-based. The protocol: as §1, §2
The target in another assay is T2, HDAC1 (Homo sapiens, UniProt Q13547).
T2 construct: The HeLa nuclear extract was used as a source of HDAC activity; host or cells: HeLa (nuclear extract / cells)
As to the kind of experiment: HDAC inhibition assay (color de lys ELISA kit), HDAC1. The assay is classed as biochemical. The settings on record: HeLa nuclear extract as source of HDAC activity. The protocol: as §3

The mark [3] stands for this setting: Homo sapiens, MCF7, MCF-7, 48 h, read-out: GI50.
The mark [4] stands for this setting: Homo sapiens, A549, A-549, 48 h, read-out: GI50.

Values after ≈ are worked out from the molar mass of the structure shown. Where two headings read alike, the source gives them in different places. A value given as a limit tells only on which side of the number the result lay.

T2 sequence (Q13547 whole entry): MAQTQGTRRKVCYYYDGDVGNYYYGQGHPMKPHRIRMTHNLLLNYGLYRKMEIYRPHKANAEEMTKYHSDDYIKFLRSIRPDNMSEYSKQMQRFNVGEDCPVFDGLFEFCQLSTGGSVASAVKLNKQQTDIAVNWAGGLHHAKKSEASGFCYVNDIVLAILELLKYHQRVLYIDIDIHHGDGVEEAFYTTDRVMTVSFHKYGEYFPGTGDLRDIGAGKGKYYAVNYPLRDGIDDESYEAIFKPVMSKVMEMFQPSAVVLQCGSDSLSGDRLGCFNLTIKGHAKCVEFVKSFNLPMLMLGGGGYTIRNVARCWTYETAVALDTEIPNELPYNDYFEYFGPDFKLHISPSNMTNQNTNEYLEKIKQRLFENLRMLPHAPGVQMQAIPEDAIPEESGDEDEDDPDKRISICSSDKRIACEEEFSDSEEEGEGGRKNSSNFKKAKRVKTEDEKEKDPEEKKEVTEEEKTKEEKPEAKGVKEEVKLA

For `O=C(CCC(=O)c1ccc(-n2ncc(-c3ccc([N+](=O)[O-])cc3)n2)cc1)NO` [VI(b), N-Hydroxy-4-(4-(4-(4-nitrophenyl)-2H-1,2,3-triazol-2-yl)phenyl)-4-oxobutanamide], the GI50 in assay [1] (setting [3]) and in assay [2] (setting [4]) was less than 10 µg/mL in each case. In addition, the half-maximal inhibitory concentration (IC50) was 24.2 µM against HDAC6 and 21.1 µM against HDAC1.

As to `Cc1ccc(-c2cnn(-c3ccc(C(=O)CCC(=O)NO)cc3)n2)cc1` [VI(d), N-Hydroxy-4-oxo-4-(4-(4-(p-tolyl)-2H-1,2,3-triazol-2-yl)phenyl)butanamide], the GI50 was found to be 12.9 µg/mL (≈ 36.8 µM) in assay [1] (setting [3]) and 14.7 µg/mL (≈ 41.9 µM) in assay [2] (setting [4]).

For `O=C(CCc1ccc(-n2ncc(-c3ccc(O)cc3)n2)cc1)NO` [VI(n), N-Hydroxy-3-(4-(4-(4-hydroxyphenyl)-2H-1,2,3-triazol-2-yl)phenyl)propanamide], the GI50 in assay [1] (setting [3]) and in assay [2] (setting [4]) was more than 80 µg/mL each time.

Take `COc1cccc2c1C(=O)c1c(O)c3c(c(O)c1C2=O)C[C@@](O)(C(=O)CO)C[C@@H]3O[C@H]1C[C@H](N)[C@H](O)[C@H](C)O1` [ADR, reference compound]: the GI50 in assay [1] (MCF-7, 48 h) is less than 10 µg/mL; in assay [2] (A-549, 48 h), less than 10 µg/mL.

Consider `O=C(CCC(=O)c1ccc(-n2ncc(-c3ccc(O)cc3)n2)cc1)NO` [VI(e), N-Hydroxy-4-(4-(4-(4-hydroxyphenyl)-2H-1,2,3-triazol-2-yl)phenyl)-4-oxobutanamide], for which the GI50 in assay [1] (setting [3]) and in assay [2] (setting [4]) was less than 10 µg/mL each time. In addition, the IC50 is 18.6 µM against HDAC6 and 27.2 µM against HDAC1.

Regarding `O=C(CCCCCn1ncc(-c2ccc(O)cc2)n1)NO` [VI(j), N-Hydroxy-6-(4-(4-hydroxyphenyl)-2H-1,2,3-triazol-2-yl)hexanamide], the 50% growth inhibitory concentration (GI50) was 17 µg/mL (≈ 58.6 µM) in assay [1] (setting [3]) and 50 µg/mL (≈ 172 µM) in assay [2] (setting [4]).

Turning to `O=C(CCC(=O)c1ccc(-n2ncc(-c3ccc(Cl)cc3)n2)cc1)NO` [VI(c), 4-(4-(4-(4-Chlorophenyl)-2H-1,2,3-triazol-2-yl)phenyl)-N-hydroxy-4-oxobutanamide], the concentration for 50% growth inhibition (GI50) in assay [1] (setting [3]) and in assay [2] (setting [4]) was less than 10 µg/mL each time. In addition, the IC50 is 31.7 µM against HDAC6 and 21.2 µM against HDAC1.

Regarding `O=C(CCCCCn1ncc(-c2ccc(Cl)cc2)n1)NO` [VI(h), 6-(4-(4-Chlorophenyl)-2H-1,2,3-triazol-2-yl)-N-hydroxyhexanamide], the GI50 is 50 µg/mL (≈ 162 µM) in assay [1] (setting [3]) and more than 80 µg/mL in assay [2] (setting [4]).

On to `COc1ccc(-c2cnn(-c3ccc(CCC(=O)NO)cc3)n2)cc1` [VI(o), N-Hydroxy-3-(4-(4-(4-methoxyphenyl)-2H-1,2,3-triazol-2-Yl)phenyl)propanamide], for which the 50% growth inhibitory concentration (GI50) in assay [1] (setting [3]) is more than 80 µg/mL; in assay [2] (setting [4]), 62 µg/mL (≈ 183 µM).

For `Cc1ccc(-c2cnn(CCCCCC(=O)NO)n2)cc1` [VI(k), N-Hydroxy-6-(4-(p-tolyl)-2H-1,2,3-triazol-2-Yl)hexanamide], the GI50 is 14.9 µg/mL (≈ 51.5 µM) in assay [1] (setting [3]) and more than 80 µg/mL in assay [2] (setting [4]).

Regarding `O=C(CCC(=O)c1ccc(-n2ncc(-c3ccc(F)cc3)n2)cc1)NO` [VI(f), 4-(4-(4-(4-Fluorophenyl)-2H-1,2,3-triazol-2-yl)phenyl)-N-hydroxy-4-oxobutanamide], the concentration for 50% growth inhibition (GI50) was less than 10 µg/mL in assay [1] (setting [3]) and 26.9 µg/mL (≈ 76 µM) in assay [2] (setting [4]).

For the molecule `O=C(CCc1ccc(-n2ncc(-c3ccc(Cl)cc3)n2)cc1)NO` [VI(l), 3-(4-(4-(4-Chlorophenyl)-2H-1,2,3-triazol-2-Yl)phenyl)-N-hydroxypropanamide], the GI50 in assay [1] (setting [3]) and in assay [2] (setting [4]) was more than 80 µg/mL in each case.

In the case of `COc1ccc(-c2cnn(-c3ccc(C(=O)CCC(=O)NO)cc3)n2)cc1OC` [VI(g), 4-(4-(4-(3,4-Dimethoxyphenyl)-2H-1,2,3-triazol-2-yl)phenyl)-N-hydroxy-4-oxobutanamide], the values for the GI50 in assay [1] (setting [3]) and in assay [2] (setting [4]) were 15 µg/mL (≈ 37.8 µM) and 53 µg/mL (≈ 134 µM), respectively.

For the molecule `COc1ccc(-c2cnn(-c3ccc(C(=O)CCC(=O)NO)cc3)n2)cc1` [VI(a), N-Hydroxy-4-(4-(4-(4-methoxyphenyl)-2H-1,2,3-triazol-2-yl)phenyl)-4-oxobutanamide], the 50% growth inhibitory concentration (GI50) in assay [1] (setting [3]) was determined as 15.1 µg/mL (≈ 41.3 µM); in assay [2] (setting [4]) it was 19.4 µg/mL (≈ 52.8 µM).

With `Cc1ccc(-c2cnn(-c3ccc(CCC(=O)NO)cc3)n2)cc1` [VI(m), N-Hydroxy-3-(4-(4-(p-tolyl)-2H-1,2,3-triazol-2-yl)phenyl)propanamide], the 50% growth inhibitory concentration (GI50) in assay [1] (setting [3]) and in assay [2] (setting [4]) was more than 80 µg/mL each time.

These data come from publication PMC12389269, “Heteroaryl-Capped Hydroxamic Acid Derivatives with Varied Linkers: Synthesis and Anticancer Evaluation with Various Apoptosis Analyses in Breast Cancer Cells, Including Docking, Simulation, DFT, and ADMET Studies” (Pharmaceuticals, 2025).
